The values below come from patent US8404708B2, “Dual NK1/NK3 receptor antagonists” (Hoffmann-La Roche Inc., priority 2004, dated 2013).

Assay [1] has as its target T1, Recombinant human NK3 (hNK3) receptor (Homo sapiens, UniProt P29371).
T1 construct: expressed in transfected cells
T1 sequence (P29371 1-465): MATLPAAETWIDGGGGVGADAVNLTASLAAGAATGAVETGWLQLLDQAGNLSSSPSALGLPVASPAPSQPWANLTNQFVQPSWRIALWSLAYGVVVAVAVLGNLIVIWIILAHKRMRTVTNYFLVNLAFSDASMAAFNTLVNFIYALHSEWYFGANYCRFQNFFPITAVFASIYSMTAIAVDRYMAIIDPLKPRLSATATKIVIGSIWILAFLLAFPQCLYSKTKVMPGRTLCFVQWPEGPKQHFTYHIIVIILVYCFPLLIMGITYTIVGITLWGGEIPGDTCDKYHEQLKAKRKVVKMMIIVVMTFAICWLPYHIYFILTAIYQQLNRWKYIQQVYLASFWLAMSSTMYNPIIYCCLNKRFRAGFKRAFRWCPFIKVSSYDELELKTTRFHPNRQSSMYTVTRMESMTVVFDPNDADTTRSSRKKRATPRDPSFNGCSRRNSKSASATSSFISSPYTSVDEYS
Put plainly: NK3 receptor binding, [3H]SR142801 displacement, membrane preparations. The procedure, abridged: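 Buffer: Tris-HCl 50 mM pH 7.4, BSA 0.1%, MnCl2 4 mM, phosphoramidon 1 μM. ~2.5 μg membrane/well, 90 min RT. NSB with SB222200 (10 μM). Vacuum filtration over 0.3% PEI-treated GF/C, cold Tris/BSA washes, scintillation count; duplicates, ≥2 experiments.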

Assay [2] addresses human NK1 receptor (Homo sapiens, UniProt P25103). Kind of assay: NK1 receptor binding, [3H]substance P displacement, CHO cell membranes.
[3] abbreviates: second value of the cell pKi NK1/NK3, hNK3 receptor, [3H]SR142801.
[4] abbreviates: first value of the cell pKi NK1/NK3, human NK1 receptor, [3H]substance P.
[5] abbreviates: second value of the cell NK1/NK3, read-out: pKi NK3 (converted).
Setting [6] is: first value of the cell NK1/NK3, read-out: pKi NK1 (converted).

Where two headings read alike, the source gives them in different places.

Sequence of human NK1 receptor (P25103 whole entry): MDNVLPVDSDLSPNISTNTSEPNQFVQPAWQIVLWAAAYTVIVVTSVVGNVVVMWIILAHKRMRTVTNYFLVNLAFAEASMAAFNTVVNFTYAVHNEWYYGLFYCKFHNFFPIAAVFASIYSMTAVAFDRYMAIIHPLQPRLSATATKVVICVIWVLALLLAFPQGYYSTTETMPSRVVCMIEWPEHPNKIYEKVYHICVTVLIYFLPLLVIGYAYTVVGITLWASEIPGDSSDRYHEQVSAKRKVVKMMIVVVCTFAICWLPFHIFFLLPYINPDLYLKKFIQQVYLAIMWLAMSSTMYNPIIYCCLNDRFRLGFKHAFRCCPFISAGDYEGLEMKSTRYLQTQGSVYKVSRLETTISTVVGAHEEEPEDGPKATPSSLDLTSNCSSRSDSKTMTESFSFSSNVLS

On to `CCN(C(C)=O)[C@H]1CCN(c2cc(-c3ccc(F)cc3C)c(N(C)C(=O)C(C)(C)c3cc(C(F)(F)F)cc(C(F)(F)F)c3)cn2)C1` [Example 108, (S)-N-[6-[3-(Acetyl-ethyl-amino)-pyrrolidin-1-yl]-4-(4-fluoro-2-methyl-phenyl)-pyridin-3-yl]-2-(3,5-bis-trifluoromethyl-phenyl)-N-methyl-isobutyramide], for which the Ki in assay [1] (setting [3]) was 8.91 nM; in assay [2] (setting [4]) it was 2.45 nM.

For `CN(C(=O)C(C)(C)c1cc(C(F)(F)F)cc(C(F)(F)F)c1)c1cnc(N2CC[C@H](O)[C@H]2CO)cc1-c1ccc(F)cc1Cl` [Example 272, (2R,3S)-2-(3,5-Bis-trifluoromethyl-phenyl)-N-[4-(2-chloro-4-fluoro-phenyl)-6-(3-hydroxy-2-hydroxymethyl-pyrrolidin-1-yl)-pyridin-3-yl]-N-methyl-isobutyramide], the Ki in assay [1] (setting [5]) was 1.1 nM; in assay [2] (setting [6]), 2 nM.

Take `CN(CCO)c1cc(-c2ccccc2Cl)c(N(C)C(=O)C(C)(C)c2cc(C(F)(F)F)cc(C(F)(F)F)c2)cn1` [Example 54, 2-(3,5-Bis-trifluoromethyl-phenyl)-N-{4-(2-chloro-phenyl)-6-[(2-hydroxy-ethyl)-methyl-amino]-pyridin-3-yl}-N-methyl-isobutyramide]: the Ki was 2.69 nM in assay [1] (setting [3]) and 1 nM in assay [2] (setting [4]).

On to `Cc1ccccc1-c1cc(N2CC[C@@H](O)[C@H](O)C2)ncc1N(C)C(=O)C(C)(C)c1cc(C(F)(F)F)cc(C(F)(F)F)c1` (racemic) [Example 186, (3RS,4RS)-2-(3,5-Bis-trifluoromethyl-phenyl)-N-(3,4-dihydroxy-4′-o-tolyl-3,4,5,6-tetrahydro-2H-[1,2′]bipyridinyl-5′-yl)-N-methyl-isobutyramide], for which the results for the Ki in assay [1] (setting [3]) and in assay [2] (setting [4]) were 12.3 nM and 1.41 nM, respectively.

As to `Cc1ccccc1-c1cc(N2CC[C@@H](O)[C@@H](CO)C2)ncc1N(C)C(=O)C(C)(C)c1cc(C(F)(F)F)cc(C(F)(F)F)c1` (racemic) [Example 192, (3RS,4RS)-2-(3,5-Bis-trifluoromethyl-phenyl)-N-(4-hydroxy-3-hydroxymethyl-4′-o-tolyl-3,4,5,6-tetrahydro-2H-[1,2′]bipyridinyl-5′-yl)-N-methyl-isobutyramide], the Ki in assay [1] (setting [3]) is 34.7 nM; in assay [2] (setting [4]), 3.02 nM.

For `CN(C(=O)C(C)(C)c1cc(C(F)(F)F)cc(C(F)(F)F)c1)c1cnc(N2C[C@H](O)[C@@H](O)C2)cc1-c1ccccc1Cl` [Example 182, (3S,4S)-2-(3,5-Bis-trifluoromethyl-phenyl)-N-[4-(2-chloro-phenyl)-6-(3,4-dihydroxy-pyrrolidin-1-yl)-pyridin-3-yl]-N-methyl-isobutyramide], the Ki in assay [1] (setting [3]) was 32.4 nM; in assay [2] (setting [4]), 0.933 nM.

In the case of `CN(C(=O)C(C)(C)c1cc(C(F)(F)F)cc(C(F)(F)F)c1)c1cnc(N2C[C@H](O)C[C@H](O)C2)cc1-c1ccccc1Cl` [Example 181], the Ki in assay [1] (setting [3]) was 3.39 nM; in assay [2] (setting [4]) it was 2 nM.

In the case of `CN(C(=O)C(C)(C)c1cc(C(F)(F)F)cc(C(F)(F)F)c1)c1cnc(N2C[C@H](O)C[C@H]2CO)cc1-c1ccccc1O` [Example 215, (2S,4R)-2-(3,5-Bis-trifluoromethyl-phenyl)-N-[6-(4-hydroxy-2-hydroxymethyl-pyrrolidin-1-yl)-4-(2-hydroxy-phenyl)-pyridin-3-yl]-N-methyl-isobutyramide], the Ki in assay [1] (setting [5]) is 4.47 nM; in assay [2] (setting [6]), 1.02 nM.

Turning to `Cc1ccncc1-c1cc(N2CCC[C@H]2CO)ncc1N(C)C(=O)C(C)(C)c1cc(C(F)(F)F)cc(C(F)(F)F)c1` [Example 292, (S)-2-(3,5-Bis-trifluoromethyl-phenyl)-N-[6′-(2-hydroxymethyl-pyrrolidin-1-yl)-4-methyl-[3,4′]bipyridinyl-3′-yl]-N-methyl-isobutyramide], the results for the Ki in assay [1] (setting [5]) and in assay [2] (setting [6]) were 0.776 nM and 3.63 nM, respectively.

For the compound `CN(C(=O)C(C)(C)c1cc(C(F)(F)F)cc(C(F)(F)F)c1)c1cnc(N2C[C@H](O)C[C@H]2CO)cc1-c1ccc(F)c(F)c1` [Example 209, (2S,4R)-2-(3,5-Bis-trifluoromethyl-phenyl)-N-[4-(3,4-difluoro-phenyl)-6-(4-hydroxy-2-hydroxymethyl-pyrrolidin-1-yl)-pyridin-3-yl]-N-methyl-isobutyramide], the figures for the Ki in assay [1] (setting [5]) and in assay [2] (setting [6]) were 3.47 nM and 1.35 nM, respectively.

On to `Cc1ccccc1-c1cc(N2CC(O)C2)ncc1N(C)C(=O)C(C)(C)c1cc(C(F)(F)F)cc(C(F)(F)F)c1` [Example 163, 2-(3,5-Bis-trifluoromethyl-phenyl)-N-[6-(3-hydroxy-azetidin-1-yl)-4-o-tolyl-pyridin-3-yl]-N-methyl-isobutyramide], for which the Ki in assay [1] (setting [3]) is 28.2 nM; in assay [2] (setting [4]), 1.82 nM.

Take `CC(=O)N(C)[C@@H]1CCN(c2cc(-c3ccc(F)cc3C)c(N(C)C(=O)C(C)(C)c3cc(C(F)(F)F)cc(C(F)(F)F)c3)cn2)C1` [Example 101, (R)-N-[6-[3-(Acetyl-methyl-amino)-pyrrolidin-1-yl]-4-(4-fluoro-2-methyl-phenyl)-pyridin-3-yl]-2-(3,5-bis-trifluoromethyl-phenyl)-N-methyl-isobutyramide]: the Ki in assay [1] (setting [3]) was 9.33 nM; in assay [2] (setting [4]), 1.7 nM.

As to `Cc1c(F)cccc1-c1cc(N2C[C@@H](O)C[C@H]2CO)ncc1N(C)C(=O)C(C)(C)c1cc(C(F)(F)F)cc(C(F)(F)F)c1` [Example 249, (2S,4S)-2-(3,5-Bis-trifluoromethyl-phenyl)-N-[4-(3-fluoro-2-methyl-phenyl)-6-(4-hydroxy-2-hydroxymethyl-pyrrolidin-1-yl)-pyridin-3-yl]-N-methyl-isobutyramide], the Ki is 1.02 nM in assay [1] (setting [5]) and 2 nM in assay [2] (setting [6]).

In the case of `Cc1cc(F)ccc1-c1cc(N2CCC(=O)C2)ncc1N(C)C(=O)C(C)(C)c1cc(C(F)(F)F)cc(C(F)(F)F)c1` [Example 111, 2-(3,5-Bis-trifluoromethyl-phenyl)-N-[4-(4-fluoro-2-methyl-phenyl)-6-(3-oxo-pyrrolidin-1-yl)-pyridin-3-yl]-N-methyl-isobutyramide], the figures for the Ki in assay [1] (setting [3]) and in assay [2] (setting [4]) were 4.07 nM and 2.09 nM, respectively.

Consider `Cc1cc(F)ccc1-c1cc(N(CCO)CCO)ncc1N(C)C(=O)C(C)(C)c1cc(C(F)(F)F)cc(C(F)(F)F)c1` [Example 84, N-[6-[Bis-(2-hydroxy-ethyl)-amino]-4-(4-fluoro-2-methyl-phenyl)-pyridin-3-yl]-2-(3,5-bis-trifluoromethyl-phenyl)-N-methyl-isobutyramide], for which the Ki in assay [1] (setting [3]) was 1.74 nM; in assay [2] (setting [4]), 3.39 nM.

For `Cc1ccccc1-c1cc(N2CCC[C@@H]2CO)ncc1N(C)C(=O)C(C)(C)c1cc(C(F)(F)F)cc(C(F)(F)F)c1` [Example 168, (R)-2-(3,5-Bis-trifluoromethyl-phenyl)-N-[6-(2-hydroxymethyl-pyrrolidin-1-yl)-4-o-tolyl-pyridin-3-yl]-N-methyl-isobutyramide], the figures for the Ki in assay [1] (setting [3]) and in assay [2] (setting [4]) were 10 nM and 2.09 nM, respectively.

Consider `Cc1ncccc1-c1cc(N2C[C@@H](O)C[C@H]2CO)ncc1N(C)C(=O)C(C)(C)c1cc(C(F)(F)F)cc(C(F)(F)F)c1` [Example 255, (2S,4S)-2-(3,5-Bis-trifluoromethyl-phenyl)-N-[6′-(4-hydroxy-2-hydroxymethyl-pyrrolidin-1-yl)-2-methyl-[3,4′]bipyridinyl-3′-yl]-N-methyl-isobutyramide], for which the Ki in assay [1] (setting [5]) was 10.7 nM; in assay [2] (setting [6]) it was 0.955 nM.

For the compound `Cc1cc(F)ccc1-c1cc(N2CC[C@H](N)C2)ncc1N(C)C(=O)C(C)(C)c1cc(C(F)(F)F)cc(C(F)(F)F)c1` [Example 103, (S)-N-[6-(3-Amino-pyrrolidin-1-yl)-4-(4-fluoro-2-methyl-phenyl)-pyridin-3-yl]-2-(3,5-bis-trifluoromethyl-phenyl)-N-methyl-isobutyramide], the figures for the Ki in assay [1] (setting [3]) and in assay [2] (setting [4]) were 15.8 nM and 1.66 nM, respectively.

`CN(C(=O)C(C)(C)c1cc(C(F)(F)F)cc(C(F)(F)F)c1)c1cnc(N2CC[C@H](O)[C@H]2CO)cc1-c1ccc(F)cc1` [Example 266, (2R,3S)-2-(3,5-Bis-trifluoromethyl-phenyl)-N-[4-(4-fluoro-phenyl)-6-(3-hydroxy-2-hydroxymethyl-pyrrolidin-1-yl)-pyridin-3-yl]-N-methyl-isobutyramide]: the Ki is 3.8 nM in assay [1] (setting [5]) and 1.2 nM in assay [2] (setting [6]).

As for `Cc1cc(F)ccc1-c1cc(N2C[C@H](O)C[C@H]2CO)ncc1N(C)C(=O)C(C)(C)c1cc(F)cc(C(F)(F)F)c1` [Example 25, (2S,4R)-N-[4-(4-Fluoro-2-methyl-phenyl)-6-(4-hydroxy-2-hydroxymethyl-pyrrolidin-1-yl)-pyridin-3-yl]-2-(3-fluoro-5-trifluoromethyl-phenyl)-N-methyl-isobutyramide], the Ki in assay [1] (setting [3]) was 1.74 nM; in assay [2] (setting [4]) it was 0.933 nM.

With `Cc1cc(F)ccc1-c1cc(N[C@H]2CCC[C@@H]2O)ncc1N(C)C(=O)C(C)(C)c1cc(C(F)(F)F)cc(C(F)(F)F)c1` [Example 154, (1S,2S)-2-(3,5-Bis-trifluoromethyl-phenyl)-N-[4-(4-fluoro-2-methyl-phenyl)-6-(2-hydroxy-cyclopentylamino)-pyridin-3-yl]-N-methyl-isobutyramide], the values for the Ki in assay [1] (setting [3]) and in assay [2] (setting [4]) were 5.75 nM and 3.16 nM, respectively.
